Assays:
MAT2A homodimer = target: T1, MAT2A homodimer (Homo sapiens, UniProt P31153); assay: MAT2A biochemical assay (liberated phosphate, PiColorLock Gold); conditions: Table 5a; MAT2A biochemical assay; read-out: Enzyme Inhibition
T1 construct: inferred from the Ni sepharose purification and imidazole elution; made in house; host or cells: SF9 insect cells, recombinant baculovirus (Bac to Bac, pFASTBAC1)
Method in brief: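 Baculovirus/Sf9-expressed, Ni-purified MAT2A homodimer preincubated with compound 60 min at 25 °C, then reacted 60 min at 25 °C with substrate mix of 500 μM ATP and 400 μM L-methionine, pH 7.0 (mix, not final levels). Phosphate released with SAM measured by PiColorLock Gold against phosphate standard curve.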

[1] = system: SAM in HCT116 MTAP-deleted cells; assay: Cellular assay of target engagement (SAM), LC-MS/MS; type: cell-based, human; conditions: Homo sapiens, HCT-116, Table 5a, 72 h, read-out: Cell 72 h SAM Inhibition (MTAP −/−)
Method in brief: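 HCT116 cells with MTAP deleted were treated with compound for 72 h at 37°C/5% CO2. After quenching lysis in cold 80% methanol with 1 M acetic acid, SAM was quantified by LC-MS/MS against a d3-SAM internal standard.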

HCT116 MTAP-/- = assay: Inhibition of cellular proliferation (Cell Titer Glo), HCT116 MTAP-/-; type: cell-based, human; conditions: Homo sapiens, HCT-116, 96 h, Table 5a, 4 days, read-out: 4 Day Relative Growth Inhibition (MTAP −/−)
Method in brief: (§1)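 Isogenic HCT116 MTAP+/+ and MTAP−/− cells were plated, treated with MAT2A inhibitor after 24 h, and incubated 4 days at 37 °C. Proliferation was read by CellTiter-Glo ATP luminescence, blank-subtracted and normalized to 0.2% DMSO control.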

HCT116 MTAP+/+ = assay: Inhibition of cellular proliferation (Cell Titer Glo), HCT116 MTAP+/+; type: cell-based; conditions: Homo sapiens, HCT-116, 96 h, Table 5a, 4 days, read-out: 4 Day Relative Growth Inhibition (MTAP +/+)
Method in brief: as §1

T1 sequence (P31153 whole entry): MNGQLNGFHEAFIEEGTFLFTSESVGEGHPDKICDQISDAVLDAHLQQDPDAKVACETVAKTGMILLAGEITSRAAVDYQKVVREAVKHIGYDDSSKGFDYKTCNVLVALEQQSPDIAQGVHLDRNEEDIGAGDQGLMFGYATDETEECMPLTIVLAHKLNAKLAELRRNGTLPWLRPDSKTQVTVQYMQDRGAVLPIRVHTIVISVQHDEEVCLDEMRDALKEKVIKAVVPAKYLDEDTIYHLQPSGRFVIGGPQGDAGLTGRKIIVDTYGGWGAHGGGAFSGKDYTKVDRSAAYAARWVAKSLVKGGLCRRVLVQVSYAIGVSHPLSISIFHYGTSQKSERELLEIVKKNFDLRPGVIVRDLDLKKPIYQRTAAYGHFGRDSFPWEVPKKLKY

Compound | IC50 (MAT2A homodimer) | IC50 [1] | IC50 (HCT116 MTAP-/-) | IC50 (HCT116 MTAP+/+)
[2H]C([2H])([2H])Oc1ccc(N2C(=O)N(c3ccc4nn(C)cc4c3)Cc3cnc(NCC(F)(F)F)nc32)cc1 [Example 421, 1-(4-(methoxy-d3)phenyl)-3-(2-methyl-2H-indazol-5-yl)-7-((2,2,2-trifluoroethyl)amino)-3,4-dihydropyrimido[4,5-d]pyrimidin-2(1H)-one] | < 100 nM | < 100 nM | < 100 nM | > 1000 nM
COc1ccc(N2C(=O)N(c3ccc4nn(C)cc4c3)Cc3cnc(NCC(F)(F)F)nc32)cc1 [Example 422, 1-(4-methoxyphenyl)-3-(2-methyl-2H-indazol-5-yl)-7-((2,2,2-trifluoroethyl)amino)-3,4-dihydropyrimido[4,5-d]pyrimidin2(1H)-one] | < 100 nM | < 100 nM | < 100 nM | > 1000 nM
[2H]C([2H])([2H])Oc1ccc(N2C(=O)N(c3ccc4nn(C([2H])([2H])[2H])cc4c3)Cc3cnc(NCC(F)(F)F)nc32)cc1 [Example 423, 1-(4-(methoxy-d3)phenyl)-3-(2-(methyl-d3)-2H-indazol-5-yl)-7-((2,2,2-trifluoroethyl)amino)-3,4-dihydropyrimido[4,5-d]pyrimidin2(1H)-one] | < 100 nM | < 100 nM | < 100 nM | > 1000 nM
Cc1nc2ccc(N3Cc4cnc(NCC(F)(F)F)nc4N(c4ccc(OC(F)F)cc4)C3=O)cc2n1C [Example 424] | < 100 nM | < 100 nM | 100 to 1000 nM | > 1000 nM
Cn1cc2cc(N3Cc4cnc(NCC(F)(F)F)nc4N(c4ccc(Br)cc4)C3=O)ccc2n1 [Example 425, 1-(4-bromophenyl)-3-(2-methyl-2H-indazol-5-yl)-7-((2,2,2-trifluoroethyl)amino)-3,4-dihydropyrimido[4,5-d]pyrimidin-2(1H)-one] | < 100 nM | < 100 nM | < 100 nM | > 1000 nM
Cn1cc2cc(N3Cc4ncc(NCC(F)(F)F)cc4N(c4ccc(OC(F)F)cc4)C3=O)ccc2n1 [Example 428, 1-(4-(difluoromethoxy)phenyl)-3-(2-methyl-2H-indazol-5-yl)-7-((2,2,2-trifluoroethyl)amino)-3,4-dihydropyrido[3,2-d]pyrimidin-2(1H)-one] | < 100 nM | < 100 nM | < 100 nM | > 1000 nM
CO[C@H]1CC[C@H](N2C(=O)N(c3ccc4nn(C)cc4c3)Cc3ccc(OCC(F)F)nc32)CC1 [Example 429, 7-(2,2-difluoroethoxy)-1-(trans-4-methoxycyclohexyl)-3-(2-methyl-2H-indazol-5-yl)-3,4-dihydropyrido[2,3-d]pyrimidin-2(1H)-one] | < 100 nM | 100 to 1000 nM | 100 to 1000 nM | > 1000 nM
[2H]C([2H])([2H])Oc1ccc(N2C(=O)N(c3ccc4nn(C)cc4c3)Cc3c(N)nc(NCC(F)(F)F)nc32)cc1 [Example 430, 5-amino-1-(4-(methoxy-d3)phenyl)-3-(2-methyl-2H-indazol-5-yl)-7-((2,2,2-trifluoroethyl)amino)-3,4-dihydropyrimido[4,5-d]pyrimidin-2(1H)-one] | < 100 nM | < 100 nM | < 100 nM | > 1000 nM
[2H]C([2H])([2H])Oc1ccc(N2C(=O)N(c3ccc4nc(OC)n(C)c4c3)Cc3ccc(OCC(F)F)nc32)cc1 [Example 431, 7-(2,2-difluoroethoxy)-3-(2-methoxy-1-methyl-1H-benzo[d]imidazol-6-yl)-1-(4-(methoxy-d3)phenyl)-3,4-dihydropyrido[2,3-d]pyrimidin-2(1H)-one] | < 100 nM | < 100 nM | 100 to 1000 nM | > 1000 nM
[2H]C([2H])([2H])Oc1ccc(N2C(=O)N(c3ccc4nn(C)cc4c3)Cc3c(NC)nc(NCC(F)(F)F)nc32)cc1 [Example 432, 1-(4-(methoxy-d3)phenyl)-3-(2-methyl-2H-indazol-5-yl)-5-(methylamino)-7-((2,2,2-trifluoroethyl)amino)-3,4-dihydropyrimido[4,5-d]pyrimidin-2(1H)-one] | < 100 nM | < 100 nM | < 100 nM | > 1000 nM
[2H]C([2H])([2H])Oc1ccc(N2C(=O)N(c3ccc4nc(C)n(C)c4c3)Cc3ccc(OC(C)C)nc32)cc1 [Example 434, 3-(1,2-dimethyl-1H-benzo[d]imidazol-6-yl)-7-isopropoxy-1-(4-(methoxy-d3)phenyl)-3,4-dihydropyrido[2,3-d]pyrimidin-2(1H)-one] | < 100 nM | < 100 nM | < 100 nM | 100 to 1000 nM
